Patent US10973744B2, “Conditioner composition comprising a chelant” (The Procter & Gamble Company, priority 2016, dated 2021)

Test: Measurement of copper on hair after shampoo / rinse-off conditioner / leave-on treatment regimen (ICP-OES)
Details: after 20 regimen cycles, compared to control conditioning shampoo/control rinse-off conditioner
Protocol: All testing are performed on colored hair switches (see Method of Measurement of copper on hair below) weighing approximately 4.0 grams and having a length of approximately 6 inches. The hair switches are commercially available from IHIP (International Hair Importers). Three hair switches per shampoo composition are used. An amount of […] of shampoo is spread via a syringe onto separate hair switch. That is, the dosage is 0.10 g of shampoo per g of hair. Each application consists of adding shampoo to the hair, milking for 30 seconds followed by rinsing for 30 seconds. Shampoo is then reapplied (0.1 g/g), milked for 30 seconds and rinsed for 30 seconds. Excess water is squeezed from the hair switches and left to air dry or treated with a rinse-off conditioner and/or a leave-on treatment composition. […]
In several cases during this inventigation, the rinse-off conditioner treatment is followed by hair treatment with a leave-on treatment composition. Specifically, the appropriate quantity of the leave-on treatment composition is uniformely sprayed or spread onto separate hair switches (dosage of 0.10 g of solution per g of hair). […]
Samples of 100 mg of hair were digested overnight with 2 ml of high purity concentrated nitric acid. […] Copper content of the hair switches was determined by inductively coupled plasma atomic spectroscopy (ICP-OES)). For each leg, 3 different samples were analyzed. […]

## NCCNCCNCCN [2,3-Triethylenetetramine]
  Removal of copper from hair (in words): effective removal of copper from hair
